Assay results published in ChEMBL document CHEMBL6120935, “Multifunctional Molecular Hybrids Photoreleasing Nitric Oxide: Advantages, Pitfalls, and Opportunities” (J Med Chem, 2024).

experiment: n-Octanol/PBS partition coefficient, logP of compound at pH 7.4 incubated for 4 hrs under shaking condition by UV spectrophotometric analysis; type: physicochemical

In order of rising logD at 4 h:
1. O=C(CC[P+](c1ccccc1)(c1ccccc1)c1ccccc1)NCCCNc1ccc([N+](=O)[O-])c(C(F)(F)F)c1  1.99
2. CC(=O)NCCCNc1ccc([N+](=O)[O-])c(C(F)(F)F)c1  2.03
3. O=C(CCCCC[P+](c1ccccc1)(c1ccccc1)c1ccccc1)NCCCNc1ccc([N+](=O)[O-])c(C(F)(F)F)c1  2.39
4. O=C(CCCCCCCC[P+](c1ccccc1)(c1ccccc1)c1ccccc1)NCCCNc1ccc([N+](=O)[O-])c(C(F)(F)F)c1  2.78
5. O=C(CCCCCCCCC[P+](c1ccccc1)(c1ccccc1)c1ccccc1)NCCCNc1ccc([N+](=O)[O-])c(C(F)(F)F)c1  3.24
